From EP1026165A1, “O-substituted Hydroxycoumaranone derivatives as antitumor and antimetastatic agents” (Roche Diagnostics GmbH, priority 1999, dated 2000)

Biological target: uPAR (Homo sapiens, UniProt Q03405)
Assay: BIO-R4 assay (ELISA test): inhibition of uPA binding to its specific receptor uPAR
Conditions: Inhibition of uPA binding to the specific uPAR receptor (BIO-R4); detection at 405 nm
Description: The compounds of the invention were tested (ELISA test) as inhibitors of human urokinase (uPA) binding to its specific receptor uPAR mAk (BIO-R4), according to the procedure described in Biol. Chem. Hoppe-Seyler, 376, 587-94 (1995) by Rettenberger et al. The assays are performed in Microtiterplates (96 wells). The following solutions are used: • washing buffer: PBS-buffer (without Mg^2+ and Ca^2+) + 0.05% Tween 20; • incubation buffer (IP): 1% skimmed milk powder in PBS-buffer (without Mg^2+ and Ca^2+); • BIO-R4 solution: 50 ng/well (0.5 µg/ml 100 µl/well) in IP; • uPAR solution: 3 ng/well (30 ng/ml; 100 µl/well) in PBS-buffer (without Mg^2+ and Ca^2+); • blocking solution: 1% skimmed milk powder in washing buffer (dissolved at 37°C); • uPA solution: 0.25 ng/well (5 ng/ml; 50 µl/well) in IP.
Detection solutions (per microtiterplate):
• (1) 6 ml (100 mM Tris-Cl pH 7.2 + 0.15% Tween 80) + 1.5 ml (10 µg) plasminogen in aqua bidest; • (2) 6 ml (100 mM Tris-Cl pH 7.2 + 0.15% Tween 80) + 1.5 ml (7.5 mg) chromozyme PL in aqua bidest. […]
For detection, the following procedure is used: Incubation with 50 µl each of detection solution (1) and (2) at room temperature. After 20 minutes a yellow colour will be visible (the positive control reads an extinction of 1 after 45-60 minutes). The detection is performed at 405 nm (reference is 490 nm) using a Dynatech MR 7000 ELISA reader. […]

Chain of uPAR (Q03405 23-305 limits assumed): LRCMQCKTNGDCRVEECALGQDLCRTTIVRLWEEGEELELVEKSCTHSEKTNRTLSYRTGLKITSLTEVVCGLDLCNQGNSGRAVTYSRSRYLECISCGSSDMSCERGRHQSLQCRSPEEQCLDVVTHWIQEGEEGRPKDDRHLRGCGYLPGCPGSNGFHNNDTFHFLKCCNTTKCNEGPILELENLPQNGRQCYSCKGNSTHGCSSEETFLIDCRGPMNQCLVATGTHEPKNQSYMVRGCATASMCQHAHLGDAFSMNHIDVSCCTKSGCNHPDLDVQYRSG

SMILES	IC50
CC(C)=C1Oc2cccc(OCC#CCN3CCC(NC(=O)c4ccc(Cl)c(S(N)(=O)=O)c4)CC3)c2C1=O [Example 4, 4-{4-[4-(3-aminosulfonyl-4-chlorobenzamido)piperidino]but-2-ynoxy}-2-isopropylidenecoumaran-3-one]	1.79 µM
CC(C)=C1Oc2cccc(OCc3cccc(CN4CCC(NC(=O)c5ccc(Cl)c(Cl)c5)CC4)c3)c2C1=O [Example 11, 4-{3-[4-(3,4-dichlorobenzamido)piperidinomethyl]phenylmethoxy}-2-isopropylidenecoumaran-3-one]	1.41 µM
